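48-hour exposure; five concentrations; linearly interpolated endpoints. Abbreviation: GI50, concentration required for 50% inhibition of growth. TGI: concentration producing complete growth inhibition.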
Legend:
Assay in all cases: DTP human tumour cell line panel, 48 h
SK-MEL-5 melanoma = test system: SK-MEL-5 melanoma
HCT-15 colon = test system: HCT-15 colon
A549 NSCLC = test system: A549 NSCLC
CAKI-1 renal = test system: CAKI-1 renal
IGROV1 ovarian = test system: IGROV1 ovarian
OVCAR-3 ovarian = test system: OVCAR-3 ovarian
HOP-62 NSCLC = test system: HOP-62 NSCLC
TK-10 renal = test system: TK-10 renal
DU-145 prostate = test system: DU-145 prostate
MCF7 breast = test system: MCF7 breast

Row | Structure (SMILES) | TGI (SK-MEL-5 melanoma) | TGI (HCT-15 colon) | TGI (A549 NSCLC) | TGI (CAKI-1 renal) | TGI (IGROV1 ovarian) | TGI (OVCAR-3 ovarian) | TGI (HOP-62 NSCLC) | TGI (TK-10 renal) | TGI (DU-145 prostate) | TGI (MCF7 breast) | GI50 (SK-MEL-5 melanoma) | GI50 (HCT-15 colon) | GI50 (A549 NSCLC) | GI50 (IGROV1 ovarian) | GI50 (MCF7 breast) | GI50 (OVCAR-3 ovarian) | GI50 (HOP-62 NSCLC) | GI50 (TK-10 renal) | GI50 (DU-145 prostate) | GI50 (CAKI-1 renal)
1 | NNC(=O)C1CCC(=O)N1S(=O)(=O)c1ccccc1 (stereo unspecified) | > 100 µM | > 100 µM | > 100 µM | > 100 µM | > 100 µM | > 100 µM | > 100 µM | > 100 µM | – | – | – | – | – | – | – | – | – | – | – | –
2 | CN(C(=O)C12C3C4C1C1C2C3C41C(N)=O)C(C)(C)C (stereo unspecified) | > 100 µM | – | > 100 µM | > 100 µM | > 100 µM | > 100 µM | – | > 100 µM | – | – | – | – | – | – | – | – | – | – | – | –
3 | COc1cc(OC)c(C/C=C/c2ccccc2)cc1O | 29.3 µM | 30.1 µM | 46.6 µM | 40.9 µM | 29.9 µM | 31.1 µM | – | 29.9 µM | 31.5 µM | – | – | – | – | – | – | – | – | – | – | –
4 | CC(C)CCCC(C)[C@H]1CCC2[C@@H]3CCC4Cc5nc6c(nc5C[C@]4(C)C3CC[C@@]21C)CC1CC[C@@H]2C(CC[C@@]3(C)C2CC[C@@H]3C(C)CCCC(C)C)[C@@]1(C)C6 (stereo partly specified) | > 100 µM | > 100 µM | > 100 µM | – | > 100 µM | > 100 µM | > 100 µM | > 100 µM | > 100 µM | > 100 µM | – | – | – | – | – | – | – | – | – | –
5 | N/N=C(/C(=O)Nc1cccc(Cl)c1)C(C(=O)c1ccc(O)cc1O)C1OC(=O)c2ccccc21 (stereo unspecified) | > 100 µM | > 100 µM | > 100 µM | – | > 100 µM | > 100 µM | > 100 µM | > 100 µM | – | – | – | – | – | – | – | – | – | – | – | –
6 | Cc1cc([N+](=O)[O-])c(NS(=O)(=O)c2cccc(C(=O)O)c2)cc1-c1cccnc1 | > 100 µM | > 100 µM | > 100 µM | – | > 100 µM | > 100 µM | > 100 µM | > 100 µM | > 100 µM | > 100 µM | > 100 µM | > 100 µM | > 100 µM | > 100 µM | > 100 µM | > 100 µM | > 100 µM | > 100 µM | > 100 µM | –
7 | O=[N+]([O-])c1ccc(-n2nnc(C3=NCCN3)c2-c2ccccc2)cc1 | > 100 µM | > 100 µM | > 100 µM | > 100 µM | > 100 µM | > 100 µM | > 100 µM | > 100 µM | – | – | – | – | – | – | – | – | – | – | – | –
8 | C=C/C=C/NC(=O)OCc1ccccc1 | > 100 µM | – | > 100 µM | > 100 µM | > 100 µM | > 100 µM | > 100 µM | > 100 µM | – | – | – | – | – | – | – | – | – | – | – | –
9 | CCOC(=O)CC[C@H](NC(=O)c1nc[nH]c1[N+](=O)[O-])C(=O)OCC | – | > 100 µM | > 100 µM | – | > 100 µM | > 100 µM | > 100 µM | > 100 µM | – | – | – | – | – | – | – | – | – | – | – | –
10 | O=C1NNC2(C(=O)N1)c1ccccc1-c1ccccc12 | > 10 µM | > 10 µM | > 10 µM | > 10 µM | > 10 µM | – | > 10 µM | > 10 µM | > 10 µM | > 10 µM | – | – | – | – | – | – | – | – | – | –
11 | O=C(O)CC[C@H](NC(=O)c1ccc(-n2nc3ccc(O)cc3nc2=O)cc1)C(=O)O | > 100 µM | > 100 µM | > 100 µM | – | > 100 µM | > 100 µM | > 100 µM | > 100 µM | – | – | – | – | – | – | – | – | – | – | – | –
12 | CC(CN(C)C)/C(=N\Nc1ccccc1)c1ccccc1 (stereo unspecified) | 17.5 µM | 11.1 µM | 2.4 µM | – | > 100 µM | 6.83 µM | 12 µM | 5.56 µM | – | – | – | – | – | – | – | – | – | – | – | –
13 | Cc1ccccc1OCC(O)CN1CCN(c2ccc(Cl)cc2)CC1 (stereo unspecified) | 30.2 µM | 40.2 µM | 84 µM | 26.6 µM | – | 31.7 µM | 32.3 µM | – | 32.7 µM | 31.5 µM | 16.3 µM | 19.2 µM | 30.2 µM | – | 16.9 µM | 16.6 µM | 15.9 µM | – | 17.9 µM | 12.5 µM
14 | O=C1C(c2ccccc2)=C(O)c2cccc3cccc1c23 | > 100 µM | > 100 µM | > 100 µM | > 100 µM | > 100 µM | > 100 µM | – | > 100 µM | – | – | – | – | – | – | – | – | – | – | – | –
15 | OC(CCNC12CC3CC(CC(C3)C1)C2)c1ccccc1 (stereo unspecified) | > 100 µM | > 100 µM | > 100 µM | > 100 µM | > 100 µM | > 100 µM | > 100 µM | > 100 µM | – | – | – | – | – | – | – | – | – | – | – | –
16 | CC1(C)CC(O)C(C)(C)[C@@H](O)C1 (stereo partly specified) | > 100 µM | > 100 µM | > 100 µM | > 100 µM | > 100 µM | – | > 100 µM | > 100 µM | > 100 µM | > 100 µM | – | – | – | – | – | – | – | – | – | –
17 | CCOc1cc2c(C(=O)CC)c(O)ccc2o1 | > 63.3 µM | > 100 µM | > 100 µM | > 100 µM | > 100 µM | > 100 µM | > 100 µM | > 100 µM | – | – | – | – | – | – | – | – | – | – | – | –
18 | O=C(c1ccc(Cl)cc1Cl)C1[C@H]2C(=O)N(c3ccc(Cc4ccc(N5C(=O)[C@@H]6ON(c7ccccc7)C(C(=O)c7ccc(Cl)cc7Cl)[C@@H]6C5=O)cc4)cc3)C(=O)[C@H]2ON1c1ccccc1 (stereo partly specified) | > 50 µM | > 50 µM | > 50 µM | > 50 µM | > 50 µM | > 50 µM | > 50 µM | > 50 µM | – | – | – | – | – | – | – | – | – | – | – | –
19 | CC1(C)C2CCC13C(=O)C1OC3(C2)C2C(=O)c3ccccc3C(=O)C12 (stereo unspecified) | – | > 100 µM | > 100 µM | 72.8 µM | – | – | > 100 µM | > 100 µM | – | > 100 µM | – | 79.4 µM | > 100 µM | – | > 100 µM | – | > 100 µM | > 100 µM | – | 21.9 µM
20 | COc1cc2c[n+](C)c3c4cc(OC)c(OC(C)C)cc4ccc3c2cc1OC | > 100 µM | > 100 µM | > 100 µM | > 100 µM | > 100 µM | 63.8 µM | > 100 µM | > 100 µM | – | – | – | – | – | – | – | – | – | – | – | –
21 | CSC1=C(N)C(=O)c2[nH]cc(CO)c2C1=N | 0.164 µM | 0.382 µM | 0.331 µM | – | 0.521 µM | 0.346 µM | 0.342 µM | 2.72 µM | 0.308 µM | 0.407 µM | 0.0451 µM | 0.163 µM | 0.136 µM | 0.225 µM | 0.16 µM | 0.134 µM | 0.193 µM | 1.37 µM | 0.166 µM | –
22 | C=C1CC2OC(=O)C(=C)C2C(O)C2C(=C)CCC12 (stereo unspecified) | 25.3 µM | – | 32.2 µM | 19.7 µM | 35.5 µM | 22.3 µM | – | 28 µM | – | – | – | – | – | – | – | – | – | – | – | –
23 | CCOC(C[C@H](O[Si](C)(C)C(C)(C)C)[C@H]1COC(=S)S1)OCC | > 100 µM | > 100 µM | > 100 µM | – | – | > 100 µM | > 100 µM | > 100 µM | – | – | – | – | – | – | – | – | – | – | – | –
